Measured values published in paper PMC9127112, “Opening opportunities for Kd determination and screening of MHC peptide complexes” (Communications Biology, 2022).
Several values for one entry are separate records, joined by “and”; a condition that tells them apart may be missing. Identical values can stand only once. Ends that are not written are not given here.

How the values were obtained:
[1] = molecular target: empty disulfide-stabilized HLA-A*02:01(Y84C/A139C) complex of heavy chain and beta-2 microglobulin (human); assay: nanoscale differential scanning fluorimetry (nDSF, thermal stabilisation)
[2] = molecular target: empty disulfide-stabilized HLA-A*02:01(Y84C/A139C) complex of heavy chain and beta-2 microglobulin (human); assay: native MS
[3] = molecular target: empty disulfide-stabilized HLA-A*02:01(Y84C/A139C) in complex with beta-2 microglobulin (human); assay: isothermal analysis of nanoscale differential scanning fluorimetry (iDSF)
[4] = molecular target: empty disulfide-stabilized HLA-A*02:01(Y84C/A139C) in complex with beta-2 microglobulin (human); assay: native MS
[5] = molecular target: T1, dsA2: HLA-A*02:01(Y84C/A139C) disulfide mutant heavy chain / β2m complex (Homo sapiens, UniProt P04439, D140Y/D185E/D98H/E176V/E277Q/G131W/G231S/I119V/I121R/I166T/I218V/L300P/L318F/N151K/N90K/P208A/P217A/Q86G/Q94H/R138H/R169H/T345S/A163C/Y108C); assay: nanoscale differential scanning fluorimetry (nDSF) thermal stability; type: binding; settings: for Tm: dsA2 2 µM, at least two independent measurements
T1 construct: made in house; host or cells: Escherichia coli (pET3a)

[6] = molecular target: T1, dsA2: HLA-A*02:01(Y84C/A139C) disulfide mutant heavy chain / β2m complex; assay: native mass spectrometry (nMS) of peptide binding to empty dsA2; settings: cone 150 V, ratio 1:5, raw data, mean of >=3 measurements;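 also: native nano-electrospray MS on Q-Tof II in positive mode, dsA2 at 10 µM with peptide 50–200 µM, incubated ≥10 min on ice, argon collision gas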
[7] = molecular target: T2, dsA2: HLA-A*02:01(Y84C/A139C) disulfide mutant heavy chain / β2m complex (Homo sapiens, UniProt P04439, A163C/D140Y/D185E/D98H/E176V/E277Q/G131W/G231S/I119V/I121R/I166T/I218V/L300P/L318F/N151K/N90K/P208A/P217A/Q86G/Q94H/R138H/R169H/T345S/Y108C); assay: biochemical; type: binding
T2 construct: made in house; host or cells: Escherichia coli (pET3a)

[8] = molecular target: T2, dsA2: HLA-A*02:01(Y84C/A139C) disulfide mutant heavy chain / β2m complex; assay: native mass spectrometry (nMS) of peptide binding to empty dsA2;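 also: native nano-electrospray MS on Q-Tof II in positive mode, dsA2 at 10 µM with peptide 50–200 µM, incubated ≥10 min on ice, argon collision gas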
[9] = molecular target: empty disulfide-stabilized HLA-A*02:01(Y84C/A139C) complex of heavy chain and beta-2 microglobulin (human); assay: nanoscale differential scanning f
[10] = molecular target: empty disulfide-stabilized HLA-A*02:01(Y84C/A139C) complex of heavy chain and beta-2 microglobulin (human); assay: native MS; remark: listed apart in the source
[11] = molecular target: empty disulfide-stabilized HLA-A*02:01(Y84C/A139C) in complex with beta-2 microglobulin (human); assay: isothermal analysis of nanoscale

LV8, NV9 without the N-terminal asparagine (peptide)
∆Tm [1]: 11.6 K | Kd [2]: 0.07 µM

Ac-NV9-NH2, NV9 with an acetylated N-terminus and an amidated C-terminus (peptide)
∆Tm [1]: 2.7 K | Kd [2]: 7 µM

LV8 (LVPMVATV), truncated NV9 variant (peptide)
Kd [3]: 0.008 µM | Kd [4]: 17 µM

NP4 (NLVP), truncated NV9 variant (peptide)
Kd [3]: 50 µM | Kd [4]: 350 µM and 100 µM

NT8, NV9 without the C-terminal valine (peptide)
Kd [2]: 30 µM

NT8 (NLVPMVAT), truncated NV9 variant (peptide)
Kd [3]: 2.6 µM | Kd [4]: 92 µM

YPNVNIHNF [YF9, reference compound]
Tm ([5]; peptide 0.2 µM): 36.1 °C | Tm ([5]; peptide 2 µM): 36.1 °C | Tm ([5]; peptide 20 µM): 36.2 °C | ∆Tm of dsA2 by peptide binding ([5]; protein-peptide ratio 1:10 (dsA2 2 µM), relative to empty dsA2 Tm 35.7 ± 0.6 °C, citrate phosphate buffer pH 7.6, duplicates): 1 ± 1 K | AUC dsA2 (empty) ([6]; acceleration voltage 10 V): 56 ± 3% and 56% | AUC dsA2/erucamide ([6]; acceleration voltage 10 V): 39 ± 2% and 39% | AUC dsA2/pep ([6]; acceleration voltage 10 V): 4 ± 2% and 4% | AUC dsA2/pep/pep ([6]; acceleration voltage 10 V): 0% | AUC dsA2 (empty) ([6]; acceleration voltage 25 V): 51% | AUC dsA2/erucamide ([6]; acceleration voltage 25 V): 44% | AUC dsA2/pep ([6]; acceleration voltage 25 V): 5% | AUC dsA2/pep/pep ([6]; acceleration voltage 25 V): 0% | AUC dsA2 (empty) ([6]; acceleration voltage 50 V): 95% | AUC dsA2/erucamide ([6]; acceleration voltage 50 V): 2% | AUC dsA2/pep ([6]; acceleration voltage 50 V): 5% | AUC dsA2/pep/pep ([6]; acceleration voltage 50 V): 0%

Ac-NV9-NH2, NV9 with acetylated N-terminus and amidated C-terminus (peptide)
Kd [3]: 4 µM | Kd [4]: 80 µM

NLVPMV [NV6]
Kd [7]: 9 µM | Kd ([8]; Kd,high): 380 µM | Kd ([8]; Kd,low): 30 µM | AUC dsA2 (empty) ([6]; acceleration voltage 10 V): 66% | AUC dsA2/erucamide ([6]; acceleration voltage 10 V): 24% | AUC dsA2/pep ([6]; acceleration voltage 10 V): 10% | AUC dsA2/pep/pep ([6]; acceleration voltage 10 V): 0.5% | AUC dsA2 (empty) ([6]; acceleration voltage 25 V): 66% | AUC dsA2/erucamide ([6]; acceleration voltage 25 V): 22% | AUC dsA2/pep ([6]; acceleration voltage 25 V): 11% | AUC dsA2/pep/pep ([6]; acceleration voltage 25 V): 0.69% | AUC dsA2 (empty) ([6]; acceleration voltage 50 V): 91.2% | AUC dsA2/erucamide ([6]; acceleration voltage 50 V): 2.9% | AUC dsA2/pep ([6]; acceleration voltage 50 V): 4.1% | AUC dsA2/pep/pep ([6]; acceleration voltage 50 V): 1.9%

VPMVATV [VV7]
Kd [7]: 7.8 µM | Kd ([8]; Kd,high): 180 µM | Kd ([8]; Kd,low): 15 µM | AUC dsA2 (empty) ([6]; acceleration voltage 10 V): 61.8% | AUC dsA2/erucamide ([6]; acceleration voltage 10 V): 19% | AUC dsA2/pep ([6]; acceleration voltage 10 V): 17% | AUC dsA2/pep/pep ([6]; acceleration voltage 10 V): 1.7% | AUC dsA2 (empty) ([6]; acceleration voltage 25 V): 62% | AUC dsA2/erucamide ([6]; acceleration voltage 25 V): 20.2% | AUC dsA2/pep ([6]; acceleration voltage 25 V): 17% | AUC dsA2/pep/pep ([6]; acceleration voltage 25 V): 1.16% | AUC dsA2 (empty) ([6]; acceleration voltage 50 V): 96% | AUC dsA2/erucamide ([6]; acceleration voltage 50 V): 1.3% | AUC dsA2/pep ([6]; acceleration voltage 50 V): 3% | AUC dsA2/pep/pep ([6]; acceleration voltage 50 V): 0%

B1: GV9, simplified NV9 derivative that retains the anchor residues L and V (peptide)
peptide: GLGGGGGGV
other [9]: 6.4 K | other [10]: 43%

B2: GV9 (…), simplified NV9 derivative that retains the anchor residues L and V (peptide)
peptide: GLGGGGGGV
Kd [11]: 0.36 µM
